Results taken from patent publication US20240374517A1, “LIPIODOL FORMULATION FOR TRANSARTERIAL CHEMOIMMUNOEMBOLIZATION” (Northwestern University, priority 2021, published 2024).

Tested on: HepG2 cells
Experiment: Dox uptake and cytotoxicity in HepG2 cells
Conditions: with (20%) vs without (0%) PF127

COc1cccc2c1C(=O)c1c(O)c3c(c(O)c1C2=O)C[C@@](O)(C(=O)CO)C[C@@H]3O[C@H]1C[C@H](N)[C@H](O)[C@H](C)O1 [Dox, doxorubicin]
cytotoxicity of Dox (CCK-8, 48 hours): not affected
cellular uptake of Dox (Dox 10 μM, 30 and 60 minutes): not affected
